Laboratory results: the Kinase Knowledgebase extract (Sharma et al. 2016)
pIC50: −log10 of the molar value.

Biological target: CDK2 (UniProt P24941)
Experiment: Enzyme Assay

pIC50, > 4.30:
CCc1cnc(CSc2cnc(NC(C)=O)s2)o1
CC(C)(C)c1cnc(CSc2cnc(NC(=NC#N)Nc3c(F)cccc3F)s2)o1
CCc1cnc(CSc2cnc(NC(=O)c3ccccc3)s2)o1
CC(C)(CO)CNCc1ccc(Nc2ncc(SCc3ncc(C(C)(C)C)o3)s2)nc1
CC(C)(C)c1cnc(CSc2cnc(Nc3ccc(S(N)(=O)=O)cc3)s2)o1
CC(C)(C)C(=O)Cc1ncc(SCc2ncc(C(C)(C)C)o2)s1
CC(C)(C)c1cnc(CSc2cnc(Nc3cccc(CO)c3)s2)o1
CC(C)(C)c1cnc(CSc2cnc(Nc3ccc(S(=O)(=O)NCCO)cc3)s2)o1
CC(C)(C)c1cnc(CSc2cnc(Nc3ccncn3)s2)o1
CC(=O)Nc1ncc(SCc2nc(C)c(C)o2)s1
CCc1coc(CSc2cnc(NC(C)O)s2)n1 (centres undefined)
CC(=O)Nc1ncc(SC(F)c2ncc(C(C)C)o2)s1 (centres undefined)
CC(=O)Nc1ncc(SCc2ncc(C(C)(C)C)o2)s1
CC(C)(C)c1cnc(CSc2cnc(Nc3ccccn3)s2)o1
